Experimental data from PMC7592892, “Anemarsaponin BII inhibits the activity of CYP3A4, 2D6, and 2E1 with human liver microsomes” (Pharmaceutical Biology, 2020).

Experiments:
Assay type in all cases: in vitro ADME
[1] = molecular target: T1, CYP3A4 (Homo sapiens, UniProt P08684); test: CYP3A4 inhibition in pooled human liver microsomes (testosterone 6β-hydroxylation)
T1 construct: marker reactions with specific substrates in human liver microsomes (HLMs); from tissue; host or cells: pooled human liver microsomes
Method: (§1) The activity of CYP450s was evaluated by the marker reactions with specific substrates in human liver microsomes (HLMs). The reaction conditions are summarized in Table 1 according to previous studies. The concentration of anemarsaponin BII was 100 μM with the following concentration of specific inhibitors: 10 μM furafylline for CYP1A2, 10 μM tranylcypromine for CYP2A6, 1 μM ketoconazole for CYP3A4, 5 μM montelukast for CYP2C8, 10 μM sulfaphenazole for CYP2C9, 50 μM tranylcypromine for CYP2C19, 10 μM quinidine for CYP2D6, 50 μM clomethiazole for CYP2E1. 200 μL incubation system included 100 mM potassium phosphate buffer (pH 7.4), NADPH generating system (1 mM NADP^+, 10 mM glucose-6-phosphate, 1 U/mL of glucose-6-phosphate dehydrogenase, and 4 mM MgCl2), the appropriate concentration of HLMs, a corresponding probe substrate and anemarsaponin BII (or positive inhibitor for different probe reactions). The HADPH-generating system was added before the incubation to preincubate for 3 min at 37 °C. The reaction was terminated with 100 μL acetonitrile (10% trichloroacetic acid for CYP2A6). Then, the mixture was centrifuged at 12,000 rpm for 10 min, and an aliquot (50 μL) of supernatant was transferred for HPLC analysis with the help of the Agilent 1260 series instrument with DAD and FLD detector according to previous studies. The HPLC conditions for analysis of corresponding metabolites of CYP isoforms are summarized in Table 2 based on previous studies (Lang et al. [2017]; Zhang et al. [2017]).
(§2) Incubations were performed in triplicate, and results were represented with the mean value. […]
(§3) The effect of anemarsaponin BII on the activity of CYPs was evaluated in pooled human liver microsomes according to previous studies (Dong et al. [2018]; Wang et al. [2019]). The residual activity of eight CYP isoforms was first detected with 100 μM anemarsaponin BII in HLMs. […]
(§4) The enzyme kinetic parameters for the probe reaction were estimated from the best fit line, using least-squares linear regression of the inverse substrate concentration versus the inverse velocity (Lineweaver–Burk plots), and the mean values were used to calculate Vmax and Km. Inhibition data from the experiments that were conducted using multiple compound concentrations were represented by Dixon plots, and inhibition constant (KI) values were calculated using non-linear regression according to the following equation: Competitive inhibition:v=(VmaxS)/(Km(1+I/KI)+S), Non-competitive inhibition:v=(VmaxS)/[Km+S(1+I/KIKi)] where I is the concentration of the compound, KI is the inhibition constant, S is the concentration of the substrate, and Km is the substrate concentration at half the maximum velocity (Vmax) of the reaction. […]

[2] = molecular target: T2, CYP2D6 (Homo sapiens, UniProt P10635); test: CYP2D6 inhibition in pooled human liver microsomes (dextromethorphan O-demethylation)
T2 construct: marker reactions with specific substrates in human liver microsomes (HLMs); from tissue; host or cells: pooled human liver microsomes
Method: as §1, §2, §3, §4

[3] = molecular target: T3, CYP2E1 (Homo sapiens, UniProt P05181); test: CYP2E1 inhibition in pooled human liver microsomes (chlorzoxazone 6-hydroxylation)
T3 construct: marker reactions with specific substrates in human liver microsomes (HLMs); from tissue; host or cells: pooled human liver microsomes
Method: as §1
Incubations were performed in triplicate, and results were represented with the mean value. The final microsomal protein concentration and incubation times for the different probe reactions are summarized in Table 1 based on previous studies (Lang et al. [2017]; Wang et al. [2019]).
The effect of anemarsaponin BII on the activity of CYPs was evaluated in pooled human liver microsomes according to previous studies (Dong et al. [2018]; Wang et al. [2019]). The residual activity of eight CYP isoforms was first detected with 100 μM anemarsaponin BII in HLMs. Next, CYPs of which the activity was inhibited by anemarsaponin BII was incubated with 0, 2.5, 5, 10, 25, 50 and 100 μM anemarsaponin BII to explore the values of half inhibition concentration (IC50). Additionally, 0–50 μM anemarsaponin BII was incubated with various concentration of probe substrates (20–100 μM testosterone for CYP3A4, 10–50 μM dextromethorphan for CYP2D6, and 25–250 μM chlorzoxazone for CYP2E1) to obtain the values of KI.
as §4, with “reaction. The mechanism of the inhibition was inspected using the Lineweaver–Burk plots and the enzyme inhibition models.” for “reaction.”

[4] = 100 μM anemarsaponin BII, residual activity
[5] = HLMs, 0-100 μM anemarsaponin BII

T3 sequence (P05181 whole entry): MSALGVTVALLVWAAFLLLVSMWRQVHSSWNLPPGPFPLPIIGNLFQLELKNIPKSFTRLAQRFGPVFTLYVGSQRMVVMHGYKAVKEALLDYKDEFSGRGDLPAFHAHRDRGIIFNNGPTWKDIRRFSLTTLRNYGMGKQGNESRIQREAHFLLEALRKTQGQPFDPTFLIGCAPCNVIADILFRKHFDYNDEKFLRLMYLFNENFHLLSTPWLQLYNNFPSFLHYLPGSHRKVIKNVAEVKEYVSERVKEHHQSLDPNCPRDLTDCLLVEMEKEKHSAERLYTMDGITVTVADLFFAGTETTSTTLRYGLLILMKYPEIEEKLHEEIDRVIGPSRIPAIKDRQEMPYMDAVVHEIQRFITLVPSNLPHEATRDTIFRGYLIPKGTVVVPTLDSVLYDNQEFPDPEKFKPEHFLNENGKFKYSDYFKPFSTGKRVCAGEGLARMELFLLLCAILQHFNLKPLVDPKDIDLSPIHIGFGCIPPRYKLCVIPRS
T1 sequence (P08684 whole entry): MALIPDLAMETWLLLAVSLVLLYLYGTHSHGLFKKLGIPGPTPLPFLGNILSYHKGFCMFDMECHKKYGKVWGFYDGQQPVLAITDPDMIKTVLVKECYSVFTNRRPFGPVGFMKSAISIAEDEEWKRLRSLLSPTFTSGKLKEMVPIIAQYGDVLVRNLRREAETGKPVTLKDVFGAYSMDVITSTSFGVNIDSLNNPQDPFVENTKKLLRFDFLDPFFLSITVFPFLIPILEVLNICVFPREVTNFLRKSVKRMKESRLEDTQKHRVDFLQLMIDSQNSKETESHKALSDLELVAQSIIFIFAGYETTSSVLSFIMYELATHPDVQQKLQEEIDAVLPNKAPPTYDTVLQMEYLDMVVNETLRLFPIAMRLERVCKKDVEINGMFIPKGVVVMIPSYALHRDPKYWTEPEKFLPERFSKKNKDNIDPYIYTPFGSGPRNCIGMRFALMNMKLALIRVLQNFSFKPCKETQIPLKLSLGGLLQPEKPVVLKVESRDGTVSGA
T2 sequence (P10635 whole entry): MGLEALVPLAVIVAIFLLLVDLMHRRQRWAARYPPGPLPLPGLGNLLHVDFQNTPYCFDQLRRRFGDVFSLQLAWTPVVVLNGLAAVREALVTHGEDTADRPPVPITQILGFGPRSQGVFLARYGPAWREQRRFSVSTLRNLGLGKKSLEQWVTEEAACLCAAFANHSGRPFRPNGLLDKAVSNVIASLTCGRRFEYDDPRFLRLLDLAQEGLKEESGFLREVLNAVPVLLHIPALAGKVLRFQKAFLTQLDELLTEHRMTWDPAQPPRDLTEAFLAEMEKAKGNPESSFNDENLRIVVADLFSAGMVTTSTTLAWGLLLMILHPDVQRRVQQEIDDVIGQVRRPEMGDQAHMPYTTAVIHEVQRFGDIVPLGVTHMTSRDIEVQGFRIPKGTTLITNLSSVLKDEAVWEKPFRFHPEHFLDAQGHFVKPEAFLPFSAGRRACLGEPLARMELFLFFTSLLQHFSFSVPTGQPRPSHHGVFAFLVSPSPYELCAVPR

## CC(CCC1(O)OC2CC3C4CCC5CC(OC6OC(CO)C(O)C(O)C6OC6OC(CO)C(O)C(O)C6O)CCC5(C)C4CCC3(C)C2C1C)COC1OC(CO)C(O)C(O)C1O (stereo not drawn) [anemarsaponin BII, Anemarsaponin BII]
[1]; [4]
  activity of CYP3A4 decreased to (relative to untreated HLMs): 15.65%
[1]; HLMs
  inhibition model CYP3A4 (Lineweaver–Burk): non-competitive
[1]; [5]
  IC50: 13.7 µM
[1]; HLMs, 20–100 μM testosterone, non-competitive model
  Ki: 6.72 µM
[2]; [4]
  activity of CYP2D6 decreased to (relative to untreated HLMs): 18.79%
[2]; HLMs
  inhibition model CYP2D6 (Lineweaver–Burk): competitive
[2]; [5]
  IC50: 16.3 µM
[2]; HLMs, 10–50 μM dextromethorphan, competitive model
  Ki: 8.26 µM
[3]; [4]
  activity of CYP2E1 decreased to (relative to untreated HLMs): 23.45%
[3]; HLMs
  inhibition model CYP2E1 (Lineweaver–Burk): competitive
[3]; [5]
  IC50: 19.7 µM
[3]; HLMs, 25–250 μM chlorzoxazone, competitive model
  Ki: 9.82 µM
